From ChEMBL document CHEMBL1123773, “The role of solvent-accessible surface area in determining partition coefficients” (J Med Chem, 1987)

Assays:
[1] = Partition coefficient (logP) (hexane); conditions: octanol/water
[2] = Partition coefficient (logP); conditions: octanol/water
[3] = Partition coefficient (logP) (chloroform); conditions: octanol/water
[4] = Partition coefficient (logP) (ether); conditions: octanol/water
[5] = Partition coefficient (logP) (benzene); conditions: octanol/water
[6] = Partition coefficient (logP) (carbon tetrachloride); conditions: octanol/water
[7] = Diffusion constant for permeability of stratum corneum; assay type: ADME

Compound	logP [1]	logP [2]	logP [3]	logP [4]	logP [5]	logP [6]	Log k [7]
COc1ccc(C=O)cc1O [ISOVANILLIN]	-0.85	0.97	1.18	0.82	–	–	–
Oc1ccc(O)cc1 [HYDROQUINONE]	0.05	–	0.23	0.38	0.15	0.04	–
O=C(O)c1cccc([N+](=O)[O-])c1	-1.22	–	0.48	1.97	–	–	–
O=[N+]([O-])c1ccccc1O [NITROPHENOLATE]	1.4	–	2.35	2.18	–	–	–
O=[N+]([O-])c1ccc(O)cc1 [P-NITROPHENOL]	-2	–	0.2	2.01	–	–	–
C[C@]12C[C@H](O)[C@H]3[C@@H](CCC4=CC(=O)CC[C@@]43C)[C@@H]1CC[C@@H]2C(=O)CO [CORTICOSTERONE]	–	–	–	–	–	–	1.78
O=C(O)C(Cl)(Cl)Cl [TRICHLOROACETIC ACID]	-2.63	1.33	-0.69	1.21	–	–	–
Nc1ccccc1[N+](=O)[O-] [2-NITROANILINE]	0.25	1.85	2.13	1.95	–	–	–
CC(C)(C)N [TERT-BUTYLAMINE]	-0.48	0.27	0.54	-0.26	–	–	–
CC(=O)[C@H]1CC[C@H]2[C@@H]3CCC4=CC(=O)CC[C@]4(C)[C@H]3CC[C@]12C [PROGESTERONE]	–	–	–	–	–	–	3.18
COc1cccc(C=O)c1O	0.53	1.37	2.3	1.35	–	–	–
O=C(O)CCl [CHLOROACETIC ACID]	-3.14	0.22	-1.92	0.37	–	–	–
CO [METHYL ALCOHOL]	-2.8	-0.77	-1.26	-1.15	–	–	–
CC(=O)[C@@]1(O)CC[C@H]2[C@@H]3CCC4=CC(=O)CC[C@]4(C)[C@H]3CC[C@@]21C [HYDROXYPROGESTERONE]	–	–	–	–	–	–	2.78
Nc1ccccc1C(=O)O [ANTHRANILIC ACID]	-2.12	1.21	-1.15	1.43	–	–	–
CCC1(c2ccccc2)C(=O)NC(=O)NC1=O [PHENOBARBITAL]	-2.22	1.71	0.62	1.51	–	–	–
Oc1ccccc1 [PHENOL]	-0.7	–	0.37	1.64	0.36	-0.36	–
C[C@]12CC[C@H]3[C@@H](CCC4=CC(=O)CC[C@@]43C)[C@@H]1CC[C@@H]2O [TESTOSTERONE]	–	–	–	–	–	–	2.6
CC(C)=O [ACETONE]	-0.91	–	0.24	-0.21	–	–	–
CCC(=O)O [PROPIONIC ACID]	-2.14	–	-0.96	0.27	–	–	–
CCCCN [BUTYLAMINE]	-0.62	0.74	0.56	0.11	–	–	–
CCCCCCCO [1-HEPTANOL]	1.01	2.41	2.41	2.4	–	–	–
O=C(O)c1ccc(O)cc1 [PARABEN]	-1.82	–	-0.5	1.42	–	–	–
CC(=O)[C@H]1CC[C@H]2[C@@H]3CC=C4C[C@@H](O)CC[C@]4(C)[C@H]3CC[C@]12C [PREGNENOLONE]	–	–	–	–	–	–	3.17

Compound	logP [1]	logP [2]	logP [3]	logP [4]	logP [5]	logP [6]	Log k [7]
O=[N+]([O-])c1cccc(O)c1 [3-NITRO-PHENOL]	-1.4	–	0.6	2.18	–	–	–
Oc1ccc2ccccc2c1 [BETANAPHTHOL]	0.3	–	1.74	1.77	1.74	0.99	–
O=Cc1ccc(O)cc1 [4-HYDROXYBENZALDEHYDE]	-0.95	–	-0.12	1.1	–	–	–
COc1cc(C=O)ccc1O [VANILLIN]	-0.72	–	1.42	0.96	–	–	–
CC(=O)[C@@]1(O)CC[C@H]2[C@@H]3CC[C@@H]4C[C@H](O)CC[C@]4(C)[C@H]3CC[C@@]21C [HYDROXYPREGNENOLONE]	–	–	–	–	–	–	2.78
COc1ccc(O)cc1 [MEQUINOL]	-0.76	–	0.23	1.47	–	–	–
CCN [ETHYLAMINE]	-1.77	-0.3	-0.35	-1.18	–	–	–
CCCCC(=O)O [VALERIC ACID]	-1	1.39	0.28	1	–	–	–
CC(C)CO [ISOBUTANOL]	-0.6	0.65	0.34	0.53	–	–	–
C[C@]12CC[C@H]3[C@@H](CCC4=CC(=O)CC[C@@]43C)[C@@H]1CC[C@@H]2C(=O)CO [DESOXYCORTICOSTERONE]	–	–	–	–	–	–	2.65
C[C@]12CCC(=O)C=C1CC[C@@H]1[C@@H]2C(=O)C[C@@]2(C)[C@H]1CC[C@]2(O)C(=O)CO [CORTISONE]	–	–	–	–	–	–	1
COC(C)=O [ACETIC ACID METHYL ESTER]	-0.26	–	1.16	0.43	–	–	–
CCCCCO [1-PENTANOL]	-0.4	–	1.05	1.2	–	–	–
COc1ccccc1O [GUAIACOL]	0.36	1.32	1.7	1.44	–	–	–
CCC(N)CC	-0.48	0.57	0.81	-0.07	–	–	–
C[C@]12CCC(=O)C=C1CC[C@@H]1[C@@H]2CC[C@@]2(C)[C@H]1CC[C@]2(O)C(=O)CO [CORTODOXONE]	–	–	–	–	–	–	1.88
CCCN [PROPYLAMINE]	–	0.28	0.26	-0.54	–	–	–
CCCCCC(=O)O [HEXANOATE]	-0.46	–	1.15	1.95	–	–	–
CCOC(C)=O [ETHYL ACETATE]	0.29	–	1.8	0.93	–	–	–
C[C@]12CCC(=O)C=C1CC[C@@H]1[C@@H]2[C@@H](O)C[C@]2(C=O)[C@@H](C(=O)CO)CC[C@@H]12 [ALDOSTERONE]	–	–	–	–	–	–	0.48
Nc1cccc([N+](=O)[O-])c1 [3-NITROANILINE]	-0.62	–	1.61	1.71	–	–	–
Nc1ccccc1 [ANILINE]	-0.3	–	1.42	0.85	–	–	–
CCCC(C)C1(CC)C(=O)NC(=O)NC1=O (centres undefined) [PENTOBARBITAL]	-1.3	2.1	1.38	1.28	–	–	–
O=C(O)c1ccccc1O [SALICYLIC ACID]	-0.57	–	0.58	2.37	0.5	0	–
